Reference: US8263151B2, “Peracid and 2-hydroxy organic acid compositions and methods for treating produce” (Fresh Express, Incorporated, priority 2008, dated 2012)

Assays:
[1] = electron-Volts; cited from earlier work
[2] = system: indigenous microorganisms (Aerobic Plate Counts); format: cell-based
[3] = system: E. coli K12; test: Attached cells challenge test on leaves (Example 1); format: cell-based; settings: PAA 0 ppm
[4] = system: Listeria innocua; test: as above; format: cell-based; settings: PAA 0 ppm

CC(=O)OO [PAA, peroxyacetic acid]
Oxidation Capacity [1]: 1.81 eV | Log Reduction of Aerobic Plate Counts vs untreated [2]: 0.7 Log cfu/g

[O][Cl+][O-] [Chlorine Dioxide]
Oxidation Capacity [1]: 1.57 eV

CC(O)C(=O)O (stereo not drawn) [LA, lactic acid]
log reduction of attached cells (quantity not given) ([3]; Romaine, LA 0.6%): 0.24 | log reduction of attached cells (quantity not given) ([3]; Romaine, LA 0.9%): 0.37 | log reduction of attached cells (quantity not given) ([3]; Spinach, LA 0.6%): 0.09 | log reduction of attached cells (quantity not given) ([3]; Spinach, LA 0.9%): 0.42 | log reduction of attached cells (quantity not given) ([3]; Spinach, LA 1.2%): 0.81 | log reduction of attached cells (quantity not given) ([4]; Romaine, LA 0.6%): 1.1 | log reduction of attached cells (quantity not given) ([4]; Romaine, LA 0.9%): 1.4 | log reduction of attached cells (quantity not given) ([4]; Romaine, LA 1.2%): 1.5 | log reduction of attached cells (quantity not given) ([4]; Spinach, LA 0.6%): 0.1 | log reduction of attached cells (quantity not given) ([4]; Spinach, LA 0.9%): 0.2 | log reduction of attached cells (quantity not given) ([4]; Spinach, LA 1.2%): 0.2

O=[O+][O-] [Ozone]
Oxidation Capacity [1]: 2.07 eV
